According to patent publication EP4559896A1, “PH-SENSITIVE CATIONIC LIPID AND LIPID NANOPARTICLE” (National University Corporation Hokkaido University, priority 2022, dated 2024):

Assays:
[1] = system: factor VII (F7); settings: mouse liver; cited from earlier work
[2] = encapsulation rate of lipid nanoparticles (RiboGreen); type: physicochemical; settings: Fluc mRNA-loaded lipid nanoparticles, TOT/DSPC/chol/PEG-DMG=65/15/20/1.5 (mol%)
Procedure: The encapsulation rate of the lipid nanoparticles was determined by measuring the amount of encapsulated nucleic acid (mRNA) using RiboGreen (manufactured by Life Technologies), which is an RNAintercalator. The amount of mRNA was quantified based on a calibration curve prepared from a dilution series solution of mRNA at a known concentration.
Specifically, 10 mM HEPES buffer (pH 7.4), 10 w/v% Triton X-100, and RiboGreen were mixed at 978.8 µL, 20 µL, and 1.25 µL per 10 wells, respectively, to obtain a Triton(+) buffer. A Triton(-) buffer was obtained in replacing Triton X-100 with 10 mM HEPES buffer (pH 7.4). 100 µL/well of the sample was added to a black 96-well plate for fluorescence measurement, and 100 µL/well of Triton(+) buffer or Triton(-) buffer was added. After the plate was gently shaken on a shaking incubator (SI-300, manufactured by AS ONE) (700 rpm, 30 seconds), the fluorescence intensity of each well was measured using a microplate reader (VARIOSKAN LUX, manufactured by Thermo Fisher Scientific) (wavelength Ex/Em=500 nm/525 nm), and the nucleic acid encapsulation rate (%) was calculated.

[3] = system: B cells, T cells, NK cells, dendritic cells, and neutrophils; experiment: uptake of DiD-modified lipid nanoparticles by spleen cell types (DiD fluorescence intensity); type: in vivo, mice; settings: Example 37, TOT-5/DSPC/chol/PEG-DMG=65/X/35-X/1.5 (mol%), 1 hour
Procedure: First, DiD-modified Fluc mRNA-loaded lipid nanoparticles having a composition of TOT-5/DSPC/chol/PEG-DMG=65/X/35-X/1.5 (mol%) (X=3, 5, 10, 15, or 20) were prepared in the same manner as in Example 34, except that the red fluorescent substance DiD was incorporated at 0.5 mol% for DiD modification. The obtained DiD-modified Fluc mRNA-loaded lipid nanoparticles were intravenously administered into the tail vein of BALB/c mice so that the dose of Fluc mRNA was 0.2 mg/kg, the mice were euthanized 1 hour after administration, and the spleen was collected (N=3). As a control, the spleen was also collected from BALB/c mice not administered with lipid nanoparticles.
The spleen cells were stained to distinguish B cells, T cells, NK cells, dendritic cells, and neutrophils. […] After removing the supernatant, the cells were resuspended with 5 mL of cold HBSS(-) buffer, the number of cells was counted, the suspensions were added to a 1.5 mL tube so that 3×10^6 cells were added, and centrifuged at 4°C and 400×g for 5 minutes. […] 6 µL of propidium iodide solution was added to the sample, each cell group was extracted by each surface antigen, and then DiD fluorescence intensity was measured.
DiD-positive cells (cells emitting DiD fluorescence) are cells that have taken up DiD-modified Fluc mRNA-loaded lipid nanoparticles. […]

[4] = system: BALB/c mice; experiment: Fluc activity in tissues of mice administered with Fluc mRNA-loaded lipid nanoparticles; type: in vivo; settings: for Fluc activity, predominant organ (liver or spleen): Example 34, TOT-5/DSPC/chol/PEG-DMG=65/X/35-X/1.5 (mol%), i.v. 0.01 mg/kg Fluc mRNA, 6 hours
Procedure: Lipid nanoparticles were administered to mice by intravenous injection into the tail vein using a 27G needle. Unless otherwise specified, BALB/c mice (4 to 5 weeks old, female) were used.
First, BALB/c mice (female, 4 weeks old) were intravenously injected with lipid nanoparticles encapsulating Fluc mRNA (Fluc mRNA-loaded lipid nanoparticles) at a dose of 0.01 mg mRNA/kg. Six hours after intravenous injection, the mice were euthanized, each tissue was collected, frozen in liquid nitrogen, and stored at -80°C. The tissues were homogenized in passive lysis buffer (manufactured by Promega) using a bead-type cell disruptor (Micro Smash MS-100R, manufactured by TOMY Seiko). Tissue debris was removed by centrifugation, and the supernatant was collected. Fluc activity in the supernatant was measured using the Luciferase Assay System (E1500, manufactured by Promega) according to the manufacturer's protocol. Luminescence was measured using a luminometer (Luminescencer-PSN, manufactured by ATTO). Protein concentration was determined using a commercially available assay kit (BCA Protein Assay Kit, manufactured by Pierce). Fluc activity was expressed as relative light units (RLU) per mg of protein.
Specifically, first, each lipid nanoparticle was intravenously administered into the tail vein of mice in an amount of 0.2 mg/kg of Fluc mRNA, and 6 hours after administration of the lipid nanoparticles, about 50 mg each of the liver, spleen, lung, heart, brain, and muscle was collected and stored frozen. 500 µL of passive lysis buffer (manufactured by Promega) was added to each tube containing the collected organ. The liver was homogenized at 4000 rpm for 20 seconds twice, the spleen, kidney, lung, and heart were homogenized at 5000 rpm for 20 seconds twice, and the muscle was homogenized at 5000 rpm for 20 seconds four times; then, the homogenate was centrifuged at 13000 rpm at 4°C for 10 minutes, and the supernatant was collected as a sample for measurement. The liver and spleen were diluted 100 times with passive lysis buffer. 50 µL of a measurement sample (tissue supernatant) was mixed with 50 µL of luciferase assay buffer of the Luciferase Assay System (E1500, manufactured by Promega) previously added in a test tube by pipetting, and the amount of luminescence was measured with a luminometer. Protein concentration was determined using a commercially available assay kit (BCA Protein Assay Kit, manufactured by Pierce). Fluc activity was expressed as relative light units (RLU) per mg of protein.

[5] = average particle size and polydispersity index by dynamic light scattering; type: physicochemical; settings: Fluc mRNA-loaded lipid nanoparticles, TOT/DSPC/chol/PEG-DMG=65/15/20/1.5 (mol%)
Procedure: The average particle size (number average value), ζ-average particle size, and polydispersity index (PdI) of the lipid nanoparticles in PBS(-) (pH 7.4), and the zeta potential in 10 mM HEPES buffer (pH 7.4) were measured using an analyzer "Zetasizer Nano ZS ZEN3600" (manufactured by Malvern) utilizing dynamic light scattering.

[6] = Example 11, TOT-5/DOPE/chol/PEG-DMG=60/15/25/1, i.v. tail vein
[7] = Example 14, TOT-5/DSPC/chol/PEG-DMG=65/15/20/1, i.v. tail vein
[8] = Example 33, TOT/DSPC/chol/PEG-DMG=65/15/20/1.5, control CL4F6/DSPC/chol/PEG-DMG=50/10/40/1.5 (mol%), i.v. tail vein

Structure (SMILES): CCCCC/C=C\C/C=C\CCCCCCCCC(CCCCCCCC/C=C\C/C=C\CCCCC)OC(=O)CCCN(C)C [DLin-MC3-DMA]
- ED50 in factor VII (F7) knockdown [1]: 0.005 mg siRNA/kg

Structure (SMILES): CCCCCCCC/C=C\CCCCCCCC(=O)OCC(COC(=O)CCCCCCC/C=C\CCCCCCCC)(COC(=O)CCCCCCC/C=C\CCCCCCCC)NC(=O)CCN1CCCCC1 [TOT-5, 2-((oleoyloxy)methyl)-2-(3-(piperidin-1-yl)propanamido)propane-1,3-diyl dioleate]
- Encapsulation Rate [2]: 88.6%
- uptake by spleen cell types (DiD fluorescence intensity) ([3]; X=3, 5, 10, 15, or 20, i.v. 0.2 mg/kg Fluc mRNA): highly taken up by B cells and dendritic cells
- improvement of the uptake by B cells by increasing the DSPC content ([3]; X=3 to 20, i.v. 0.2 mg/kg Fluc mRNA): about 10 times
- Fluc activity (RLU/mg protein) in the liver and spleen ([4]; Example 11, TOT-5/DOPE/chol/PEG-DMG=50 to 65/10 to 35/0 to 40/1 (mol%), all compositions, i.v. tail vein): confirmed
- Fluc activity (RLU/mg protein) in the liver [4, 6]: high
- Fluc activity (RLU/mg protein) in the spleen [4, 6]: not so high
- Fluc activity (RLU/mg protein) in the liver and spleen ([4]; Example 13, TOT/DOPE/chol/PEG-DMG=60/15/25/1.0 (mol%), i.v. tail vein): very high
- Fluc activity (RLU/mg protein) in the liver and spleen ([4]; Example 14, TOT-5/DSPC/chol/PEG-DMG=55 to 70/5 to 30/10 to 35/1 (mol%), all compositions, i.v. tail vein): confirmed
- Fluc activity (RLU/mg protein) in the liver ([4]; Example 14, TOT-5/DSPC/chol/PEG-DMG=65/5/30/1, i.v. tail vein): very high
- Fluc activity (RLU/mg protein) in the liver [4, 7]: not so high
- Fluc activity (RLU/mg protein) in the spleen [4, 7]: high
- luciferase activity in the spleen compared with control mice (CL4F6-containing lipid nanoparticles) [4, 8]: higher
- Fluc activity, predominant organ (liver or spleen) ([4]; DSPC content 10 mol% or more): predominantly in the spleen
- Fluc activity, predominant organ (liver or spleen) ([4]; DSPC content less than 10 mol%): predominantly in the liver
- PdI [5]: 0.161
- ζ-Average Particle Size [5]: 102.1 nm

Structure (SMILES): CCCCCCCC/C=C\CCCCCCCC(=O)OCC(COC(=O)CCCCCCC/C=C\CCCCCCCC)(COC(=O)CCCCCCC/C=C\CCCCCCCC)NC(=O)C1CCN(C(C)C)CC1 [TOT-19, 2-(1-isopropylpiperidine-4-carboxamide)-2-((oleoyloxy)methyl)propane-1,3-diyl dioleate]
- Encapsulation Rate [2]: 92.2%
- luciferase activity in the heart compared with control mice (CL4F6-containing lipid nanoparticles) [4, 8]: very high
- luciferase activity in the lung compared with control mice (CL4F6-containing lipid nanoparticles) [4, 8]: highest
- luciferase activity in the muscle compared with control mice (CL4F6-containing lipid nanoparticles) [4, 8]: very high
- PdI [5]: 0.261
- ζ-Average Particle Size [5]: 142.6 nm

Structure (SMILES): CCCCC/C=C\C/C=C\CCCCCCCCOC1(OCCCCCCCC/C=C\C/C=C\CCCCC)CCN(C)CC1 [YSK05]
- ED50 in factor VII (F7) knockdown [1]: 0.06 mg siRNA/kg
